pEC50, pIC50: −log10 of the molar value. Like-named read-outs stand apart in the source and are kept apart here.
Key:
MM1.S xenograft = experiment: MM1.S multiple myeloma xenograft model; type: in vivo; conditions: for TGI: 13 d
acetylation of α-Tubulin = experiment: Western blot of tubulin acetylation in HEL92.1.7 cells; type: cell-based, human; conditions: HEL92.1.7, 3 to 48 h, 8 point dose response from 10 μM
Method: Cells were harvested and washed twice with cold PBS after the indicated treatments. Cell pellets were lysed in 30μl of lysis buffer (50 mM Tris-HCl, pH 7.4, 150 mM NaCl, 1% Triton X-100, 0.1% SDS, 1 mM EDTA, 1 mM Na3VO4, 1 mM NaF, and protease inhibitor cocktail) for 30 min on ice. Lysates were centrifuged at 12,000 ×g for 20 min at 4°C, and the protein content in the supernatants was determined using the Bradford reagent (Bio-Rad). Equal amount of protein lysate was resolved by SDS-PAGE and transferred onto a nitrocellulose membrane (Bio-Rad). Membranes were blocked with 5% non-fat milk powder in PBS-Tween 20 buffer for 1 h, followed by incubation with primary antibody at 4°C overnight. Membranes were washed in PBST and then incubated with HRP-conjugated anti-goat or mouse anti- IgG (Cell Signalling Technology) antibody and detected using the Millipore ECL Western Blot substrate. β-actin was used as a loading control. Antibodies were obtained from the following sources: Acetyl-α- Tubulin (Cell Signalling Technology, […], 1:500), β-actin (Santa Cruz Biotechnology, sc47778, 1:2000), HRP-conjugated secondary antibodies (Santa Cruz Biotechnology, 1:2000 for β-actin blots, 1:1000 for all others). Blots shown are representative of at least two independent experiments.

remaining HDACs = experiment: HDAC panel HDAC1 to HDAC10, remaining HDACs (other than HDAC6 and HDAC8); type: biochemical; conditions: about […] to >10 μM, read-out: IC50 against the remaining HDACs
Method: (§1) Dose-response studies for HDAC isoforms were conducted at Reaction Biology Corporation. All assays are based on the same principle of a two-step reaction: first, the substrate with the acetylated lysine side chain is incubated with a sample containing HDAC enzyme, to produce the deacetylated products, which are then digested in the second step by the addition of the developer to produce the fluorescent signal proportional to the amount of deacetylated substrates. Recombinant proteins HDAC1, HDAC2, HDAC3, HDAC4, HDAC5, HDAC6, HDAC7, HDAC8, HDAC9, and HDAC10 were incubated with a test compound for 5min, and then the fluorophore-conjugated substrate was added to the wells and incubated for 30 min to 2 h for different HDACs. Reactions were performed in assay buffer (50 mM Tris-HCl, pH 8.0, 137 mM NaCl, 2.7 mM KCl, 1 mM MgCl2, 1 mg/mL BSA, 1% DMSO, pH 7.4) and fluorescence measurements were obtained approximately every 20 min for an hour using an Envision, Perkin-Elmer plate reader (Excitation 360 nm/Emission 460 nm). IC50 values and curve fits were obtained using (GraphPad Prism Software, Inc.).

hHDAC8 = hHDAC8 (Homo sapiens, UniProt Q9BY41); experiment: Thermal shift assay (SYPRO Orange); type: binding; conditions: protein:compound 1:15; Tm without compound 41°C
Sequence of hHDAC8 (Q9BY41 whole entry): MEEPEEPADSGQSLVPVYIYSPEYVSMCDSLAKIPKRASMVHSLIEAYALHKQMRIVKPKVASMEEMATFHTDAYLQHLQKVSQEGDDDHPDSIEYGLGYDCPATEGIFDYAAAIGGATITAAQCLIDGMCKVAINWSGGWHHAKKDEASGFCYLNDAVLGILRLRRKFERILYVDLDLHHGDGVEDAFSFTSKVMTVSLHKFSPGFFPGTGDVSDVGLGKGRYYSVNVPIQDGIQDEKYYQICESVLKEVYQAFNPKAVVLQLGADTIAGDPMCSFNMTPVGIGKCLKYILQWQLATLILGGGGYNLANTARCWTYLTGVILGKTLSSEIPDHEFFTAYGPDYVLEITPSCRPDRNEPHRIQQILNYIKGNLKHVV
Method: (§2) The melting temperature (Tm) of human LSD1 and HDAC8 proteins were determined by fluorescence based thermal shift assay. Reaction mixture containing 0.5 μM protein, 5X SYPRO™ Orange Protein Gel Stain (Thermo Fisher Scientific Cat: S6650), compound at 10-fold excess for hLSD1, 15-fold excess for hHDAC8. The final volume made up with respective protein buffers. All experiments were done in triplicates at 50 μL reaction volume. The samples heated from 15°C to 95°C with an increment of 1°C per 30sec using CFX96™ Real-Time PCR Detection system–C1000 Thermal Cycler (Bio-Rad). Filters custom configured to the optimal excitation (492 nm) and emission (610 nm) wavelengths for SYPRO orange dye. Protein denaturation monitored by the increase in fluorescence signal emitted by SYPRO Orange. The SYPRO Orange binds to the exposed hydrophobic regions of protein undergoing thermal denaturation and corresponding fluorescence emissions are recorded as melt curves. The temperature corresponding to the inflection point, Tm is determined by calculating the first derivative from melt curve using CFX manager 3.1 software (Bio-Rad).

human LSD1 = biological target: T1, human LSD1 (Homo sapiens, UniProt O60341); experiment: Thermal shift assay (SYPRO Orange); type: binding; conditions: protein:compound 1:10; Tm in the absence of compound 43°C
T1 construct: Tm of full length LSD1 protein in the absence of compound was 43°C
Method: as §2

HDAC9 = biological target: T2, HDAC9 (Homo sapiens, UniProt Q9UKV0); experiment: HDAC isoform inhibition assay (Reaction Biology); type: biochemical; conditions: generated at Reaction Biology Corporation
T2 construct: purchased Reaction Biology Corporation (assay run at the CRO)
T2 sequence (Q9UKV0 whole entry, canonical isoform): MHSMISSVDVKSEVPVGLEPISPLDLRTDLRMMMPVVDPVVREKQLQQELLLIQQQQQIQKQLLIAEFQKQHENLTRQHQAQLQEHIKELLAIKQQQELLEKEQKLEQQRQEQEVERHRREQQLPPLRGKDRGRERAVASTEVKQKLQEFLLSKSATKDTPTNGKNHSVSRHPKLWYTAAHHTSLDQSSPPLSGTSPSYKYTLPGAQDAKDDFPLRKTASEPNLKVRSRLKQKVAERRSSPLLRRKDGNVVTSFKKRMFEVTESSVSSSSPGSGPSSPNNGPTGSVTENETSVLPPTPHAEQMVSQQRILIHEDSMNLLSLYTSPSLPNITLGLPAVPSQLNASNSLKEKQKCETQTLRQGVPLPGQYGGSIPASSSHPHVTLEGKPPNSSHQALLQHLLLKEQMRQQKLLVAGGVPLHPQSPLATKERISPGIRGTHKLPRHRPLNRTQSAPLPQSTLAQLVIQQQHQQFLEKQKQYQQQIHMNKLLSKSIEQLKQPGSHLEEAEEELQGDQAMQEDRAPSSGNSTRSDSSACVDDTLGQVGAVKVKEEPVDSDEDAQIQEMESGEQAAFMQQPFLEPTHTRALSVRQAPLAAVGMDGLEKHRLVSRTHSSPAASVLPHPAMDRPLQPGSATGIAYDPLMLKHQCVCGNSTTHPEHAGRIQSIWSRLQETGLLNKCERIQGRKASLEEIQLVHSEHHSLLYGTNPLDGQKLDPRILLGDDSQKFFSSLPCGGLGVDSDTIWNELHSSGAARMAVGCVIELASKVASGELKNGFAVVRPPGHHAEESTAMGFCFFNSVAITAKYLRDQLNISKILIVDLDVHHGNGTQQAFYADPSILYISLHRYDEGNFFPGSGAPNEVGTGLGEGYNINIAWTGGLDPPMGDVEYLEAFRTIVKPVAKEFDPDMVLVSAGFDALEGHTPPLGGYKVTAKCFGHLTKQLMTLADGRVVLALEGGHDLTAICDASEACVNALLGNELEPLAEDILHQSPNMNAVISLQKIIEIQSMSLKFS
Method: as §1

HDAC7 = biological target: T3, HDAC7 (Homo sapiens, UniProt Q8WUI4); experiment: HDAC isoform inhibition assay (Reaction Biology); type: biochemical; conditions: generated at Reaction Biology Corporation
T3 construct: purchased Reaction Biology Corporation (assay run at the CRO)
T3 sequence (Q8WUI4 whole entry, canonical isoform): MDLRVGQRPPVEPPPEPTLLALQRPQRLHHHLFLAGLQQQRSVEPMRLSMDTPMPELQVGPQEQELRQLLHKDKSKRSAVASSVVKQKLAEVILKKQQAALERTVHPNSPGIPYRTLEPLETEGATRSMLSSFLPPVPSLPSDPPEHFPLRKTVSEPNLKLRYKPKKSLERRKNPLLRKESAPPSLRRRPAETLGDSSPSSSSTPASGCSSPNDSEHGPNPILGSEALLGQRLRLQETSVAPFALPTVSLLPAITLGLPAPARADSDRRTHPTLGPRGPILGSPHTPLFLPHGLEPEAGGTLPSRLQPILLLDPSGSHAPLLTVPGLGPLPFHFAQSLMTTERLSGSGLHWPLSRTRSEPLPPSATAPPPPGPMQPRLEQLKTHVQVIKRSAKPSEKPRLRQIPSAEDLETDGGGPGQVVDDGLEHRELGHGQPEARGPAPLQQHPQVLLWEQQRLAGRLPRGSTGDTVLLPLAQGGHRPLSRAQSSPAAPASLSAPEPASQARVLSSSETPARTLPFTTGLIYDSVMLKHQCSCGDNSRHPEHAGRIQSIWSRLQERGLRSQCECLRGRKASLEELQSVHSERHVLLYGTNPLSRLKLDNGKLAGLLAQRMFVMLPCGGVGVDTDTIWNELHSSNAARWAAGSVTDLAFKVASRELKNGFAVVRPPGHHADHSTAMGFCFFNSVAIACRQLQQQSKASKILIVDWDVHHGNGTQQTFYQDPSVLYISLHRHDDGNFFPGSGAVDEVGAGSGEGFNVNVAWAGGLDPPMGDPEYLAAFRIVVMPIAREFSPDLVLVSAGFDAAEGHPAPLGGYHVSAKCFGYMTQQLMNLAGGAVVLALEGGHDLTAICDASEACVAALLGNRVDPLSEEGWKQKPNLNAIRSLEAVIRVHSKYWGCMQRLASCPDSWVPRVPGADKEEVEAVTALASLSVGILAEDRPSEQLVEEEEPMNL
Method: as §1

HDAC2 = biological target: T4, HDAC2 (Homo sapiens, UniProt Q92769); experiment: HDAC isoform inhibition assay (Reaction Biology); type: biochemical; conditions: generated at Reaction Biology Corporation
T4 construct: purchased Reaction Biology Corporation (assay run at the CRO)
T4 sequence (Q92769 whole entry, canonical isoform): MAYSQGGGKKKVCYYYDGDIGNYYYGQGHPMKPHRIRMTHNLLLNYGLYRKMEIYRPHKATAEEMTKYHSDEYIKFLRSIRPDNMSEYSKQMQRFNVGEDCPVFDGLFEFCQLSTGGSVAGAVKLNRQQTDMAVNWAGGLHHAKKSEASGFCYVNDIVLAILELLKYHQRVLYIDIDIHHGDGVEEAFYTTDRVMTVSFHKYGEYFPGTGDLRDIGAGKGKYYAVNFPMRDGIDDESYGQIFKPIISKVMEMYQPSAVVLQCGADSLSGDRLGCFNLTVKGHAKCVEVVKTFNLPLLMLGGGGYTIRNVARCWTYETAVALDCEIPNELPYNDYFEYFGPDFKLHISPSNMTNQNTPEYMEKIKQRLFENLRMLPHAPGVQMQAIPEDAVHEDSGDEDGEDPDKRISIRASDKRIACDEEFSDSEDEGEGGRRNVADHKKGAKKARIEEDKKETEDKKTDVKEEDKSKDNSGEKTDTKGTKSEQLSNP
Method: as §1

HDAC5 = biological target: T5, HDAC5 (Homo sapiens, UniProt Q9UQL6); experiment: HDAC isoform inhibition assay (Reaction Biology); type: biochemical; conditions: generated at Reaction Biology Corporation
T5 construct: purchased Reaction Biology Corporation (assay run at the CRO)
T5 sequence (Q9UQL6 whole entry, canonical isoform): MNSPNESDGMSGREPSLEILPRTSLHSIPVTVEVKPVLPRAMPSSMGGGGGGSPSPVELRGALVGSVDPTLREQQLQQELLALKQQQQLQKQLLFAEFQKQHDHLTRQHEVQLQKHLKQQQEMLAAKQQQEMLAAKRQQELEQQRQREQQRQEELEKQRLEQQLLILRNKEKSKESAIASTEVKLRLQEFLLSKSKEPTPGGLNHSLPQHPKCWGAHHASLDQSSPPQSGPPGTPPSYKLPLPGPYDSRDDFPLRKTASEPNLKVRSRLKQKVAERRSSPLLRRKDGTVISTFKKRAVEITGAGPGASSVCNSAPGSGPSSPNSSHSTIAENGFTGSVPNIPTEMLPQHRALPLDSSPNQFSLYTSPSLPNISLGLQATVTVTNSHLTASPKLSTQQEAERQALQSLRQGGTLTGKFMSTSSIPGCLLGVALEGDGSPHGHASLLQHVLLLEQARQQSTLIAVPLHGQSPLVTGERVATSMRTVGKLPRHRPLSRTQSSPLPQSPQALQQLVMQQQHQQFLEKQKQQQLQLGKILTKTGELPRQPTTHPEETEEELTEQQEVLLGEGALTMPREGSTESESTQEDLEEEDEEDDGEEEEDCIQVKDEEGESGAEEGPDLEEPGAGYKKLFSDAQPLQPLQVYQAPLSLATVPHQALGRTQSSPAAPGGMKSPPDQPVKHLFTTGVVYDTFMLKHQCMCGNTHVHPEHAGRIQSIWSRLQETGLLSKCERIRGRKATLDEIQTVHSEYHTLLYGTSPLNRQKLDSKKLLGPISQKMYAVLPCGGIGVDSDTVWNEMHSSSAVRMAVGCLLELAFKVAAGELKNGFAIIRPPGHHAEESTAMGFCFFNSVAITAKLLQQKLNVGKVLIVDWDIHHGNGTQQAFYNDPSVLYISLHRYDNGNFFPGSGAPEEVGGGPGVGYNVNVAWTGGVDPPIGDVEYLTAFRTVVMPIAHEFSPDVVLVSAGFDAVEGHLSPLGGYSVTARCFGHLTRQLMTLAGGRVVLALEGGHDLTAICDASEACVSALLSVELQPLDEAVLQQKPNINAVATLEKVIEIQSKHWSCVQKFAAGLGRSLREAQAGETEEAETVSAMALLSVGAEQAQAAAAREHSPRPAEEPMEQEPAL
Method: as §1

HEL 92.1.7 = experiment: Cell proliferation assay (Alamar Blue); type: cell-based, human; conditions: for pEC50: Homo sapiens
Method: (§3) Cells were seeded in NUNC 96-well tissue culture plates (Life Technologies) in […] culture medium and incubated at 37°C/ 5% CO2 to adhere to plastic for 18–24 h. […] One set of plates (designated for the 144 h read out) were centrifuged at low speed for 30 seconds, and respective compounds were replenished in fresh media and incubated for another 68–72 h at 37°C/ 5% CO2. […] The inhibition curve was then fitted by plotting % inhibition against log concentration in GraphPad Prism 5.0 (GraphPad Software, Inc.) and the GI50 value of compound was determined. Data are representative of at least two independent experiments.

CT-26 syngeneic tumors = experiment: CT-26 mouse colon cancer syngeneic model; type: in vivo, BALB/c mice; conditions: 14 d
Method: For CT-26 syngeneic mouse colon cancer model female BALB/c (6–8 weeks old, Vivo Biotech, India) were used. 1x10^6 CT26 tumor cells in 100 μL of serum-free medium mixed with 1:1 ratio of matrigel were injected s.c. into the right flank of mice. […] During the experiment, body weights were measured 2–3 times a week and tumor volume was measured using callipers every other day in three dimensions. Tumor volume was calculated from the pi-based ellipsoid volume formula π/6*length*width*height. Mice were culled when the tumor volume reached either the ethical limit of 2000 mm^3 or if the tumor was ulcerated. The percentage change in tumor volume from baseline was used to assess the response to treatment. Tumor measurements were performed in a blinded manner throughout the study.

THP-1 = experiment: Cell proliferation assay (Alamar Blue); type: cell-based; conditions: Homo sapiens; THP-1, Leukemia, 144 h
Method: as §3

Hep3B2 = experiment: Cell proliferation assay (Alamar Blue); type: cell-based; conditions: Homo sapiens, Hep3B; Hep3B2, Hepatocellular Carcinoma, 144 h
Method: as §3

OCI-AML3 = experiment: Cell proliferation assay (Alamar Blue); type: cell-based; conditions: Homo sapiens, OCI-AML-3; OCI-AML3, Leukemia, 144 h
Method: as §3

WM-266-4 = experiment: Cell proliferation assay (Alamar Blue); type: cell-based; conditions: Homo sapiens; WM-266-4, Melanoma, 144 h
Method: as §3

RPMI-7591 = experiment: Cell proliferation assay (Alamar Blue); type: cell-based; conditions: RPMI-7591, Melanoma, 144 h
Method: as §3

MM1.R = experiment: Cell proliferation assay (Alamar Blue); type: cell-based; conditions: MM.1R, Multiple Myeloma, 144 h
Method: as §3

H1341 = experiment: Cell proliferation assay (Alamar Blue); type: cell-based; conditions: H1341, SCLC, 144 h
Method: as §3

Hep-G2 = experiment: Cell proliferation assay (Alamar Blue); type: cell-based; conditions: Homo sapiens, HepG2; Hep-G2, Hepatocellular Carcinoma, 144 h
Method: as §3

HT144 = experiment: Cell proliferation assay (Alamar Blue); type: cell-based; conditions: Homo sapiens, HT-144; HT144, Melanoma, 144 h
Method: as §3

G362 = experiment: Cell proliferation assay (Alamar Blue); type: cell-based; conditions: G362, Melanoma, 144 h
Method: as §3

HL60 = experiment: Cell proliferation assay (Alamar Blue); type: cell-based; conditions: Homo sapiens, HL-60; HL60, Leukemia, 144 h
Method: as §3

H2171 = experiment: Cell proliferation assay (Alamar Blue); type: cell-based; conditions: Homo sapiens, NCI-H2171; H2171, SCLC, 144 h
Method: as §3

H510A = experiment: Cell proliferation assay (Alamar Blue); type: cell-based; conditions: Homo sapiens, NCI-H510A, SCLC, 144 h
Method: as §3

SKMeI2 = experiment: Cell proliferation assay (Alamar Blue); type: cell-based; conditions: SKMeI2, Melanoma, 144 h
Method: as §3

Colo-289 = experiment: Cell proliferation assay (Alamar Blue); type: cell-based; conditions: Colo-289, Melanoma, 144 h
Method: as §3

HL60-MX1 = experiment: Cell proliferation assay (Alamar Blue); type: cell-based; conditions: HL60-MX1, Leukemia, 144 h
Method: as §3

[1] = test system: HEL92.1.7 xenograft tumors; experiment: HEL92.1.7 erythroleukaemia xenograft model; type: in vivo; conditions: for % tumor growth inhibition (TGI): PO, QD, 14 days
CD86 = experiment: Differentiation marker mRNA by RT-qPCR in HEL 92.1.7 cells; type: cell-based, human; conditions: HEL92.1.7, 3–48 h
Method: (§4) Total RNA was isolated using the TRIzol (Thermo Fisher Scientific, Waltham, MA, USA) reagent according to the manufacturer's instructions. The obtained RNA was reverse-transcribed to synthesize the complementary DNA from RNA using High Capacity cDNA Reverse Transcription Kit (Applied Biosystems, U.S.). DyNAmo ColorFlash SYBR Green qPCR Kit (Thermo Fisher Scientific) was used with cDNA and gene specific primers at a final volume of 10 μL. Real-time quantitative PCR was performed for 40 cycles of 15 s each, at 95°C and 30 s at 60°C, using a CFX96 real time machine (Bio-Rad). All reactions were performed in duplicate and the data was calculated using the delta (delta Ct) method. The relative gene expression levels for a target gene was normalized to the expression of β-actin. All the primer sequences were procured from Eurofins Genomics India Limited. Primer sequences for the analysed genes are as follows: • beta Actin [NT], beta Actin [NT]. Gfi1b [NT], Gfi1b [NT], CD86 [NT], CD86 […], CD11b [NT]

GFI1b = experiment: as above; type: cell-based, human; conditions: HEL92.1.7, 3–48 h
Method: as §4

CD11b = experiment: as above; type: cell-based, human; conditions: HEL92.1.7, 3–48 h
Method: as §4

[2] = test system: panel of non-small lung cancer, melanoma, and hepatocellular carcinoma tumor cell lines; experiment: Cell proliferation assay, solid tumor cell line panel; type: cell-based; conditions: 144 h; 6 days; range over cell lines; read-out: EC50 values across solid tumor panel
Method: as §3

HDAC1 = biological target: T6, HDAC1 (Homo sapiens, UniProt Q13547); experiment: HDAC isoform inhibition assay (Reaction Biology); type: biochemical; conditions: generated at Reaction Biology Corporation
T6 construct: purchased Reaction Biology Corporation (assay run at the CRO)
T6 sequence (Q13547 whole entry, canonical isoform): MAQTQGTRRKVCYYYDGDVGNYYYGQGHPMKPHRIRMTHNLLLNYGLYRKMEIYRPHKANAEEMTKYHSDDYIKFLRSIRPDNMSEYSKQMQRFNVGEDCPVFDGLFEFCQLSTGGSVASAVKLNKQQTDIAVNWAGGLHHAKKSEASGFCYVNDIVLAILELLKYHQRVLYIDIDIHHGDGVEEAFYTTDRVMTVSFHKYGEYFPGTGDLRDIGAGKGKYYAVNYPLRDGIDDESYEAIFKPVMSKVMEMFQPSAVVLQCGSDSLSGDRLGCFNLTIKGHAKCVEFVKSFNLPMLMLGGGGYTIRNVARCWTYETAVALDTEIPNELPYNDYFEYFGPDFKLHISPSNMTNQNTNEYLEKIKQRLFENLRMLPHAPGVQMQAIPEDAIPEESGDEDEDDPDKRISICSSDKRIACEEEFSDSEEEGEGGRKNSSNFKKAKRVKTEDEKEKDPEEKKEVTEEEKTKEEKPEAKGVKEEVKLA

**Q.** `Nc1cccc2c1C(=O)N(C1CCC(=O)NC1=O)C2=O` (stereo not drawn) [Pomalidomide, reference compound] was tested. Which tolerability (MM1.S xenograft; single agents (Bortezomib 0.5 mg/kg IP BIW; Pomalidomide 2.5 mg/kg PO 5x/week)) did it give?
**A.** well tolerated

**Q.** Which results are given for `O=C(NO)c1ccc(CCCN2CCC(CN[C@H]3C[C@@H]3c3ccccc3)CC2)cc1` (relative stereo) [JBI-097]?
**A.** acetylation of α-Tubulin (acetylation of α-Tubulin): time and concentration dependent increase; pIC50 (remaining HDACs): ≤ 5.96; Tm of HDAC8 incubated with compound (hHDAC8): 47 °C; Tm of LSD1 incubated with compound (human LSD1): 55 °C; pIC50 (HDAC9): 5.46; pIC50 (HDAC7): 5.45; pIC50 (HDAC2): 5.40; pIC50 (HDAC5): 5.94; cell growth inhibition reached (plateau) (HEL 92.1.7; HEL92.1.7, 6 days of incubation, up to 10 μM): 100%; pEC50 (HEL 92.1.7; HEL 92.1.7, read-out: anti-proliferative EC50, HEL92.1.7, 3 days (72 h) of incubation): 6.14; pEC50 (HEL 92.1.7; HEL 92.1.7, Leukemia, 144 h, read-out: EC50, 144hr): 7.31; TGI (CT-26 syngeneic tumors; JBI-097 20 mg/kg PO in combination with anti-PD-L1 100 μg/animal IP Q4D): 76%; TGI (CT-26 syngeneic tumors; JBI-097 alone, 20 mg/kg PO, 5 days on 2 days off): 50%; pEC50 (THP-1): 6.65; pEC50 (Hep3B2): 5.89; pEC50 (OCI-AML3): 7.52; pEC50 (WM-266-4): 5.17; pEC50 (RPMI-7591): 5.09; pEC50 (MM1.R): 7.54; pEC50 (H1341): 5.49; pEC50 (Hep-G2): 5.96; pEC50 (HT144): 5.50; pEC50 (G362): 5.12; pEC50 (HL60): 5.82; pEC50 (H2171): 5.57; pEC50 (H510A): 5.97; pEC50 (SKMeI2): 5.74; pEC50 (Colo-289): 5.66; pEC50 (HL60-MX1): 7.47; % tumor growth inhibition (TGI) ([1]; 25 mg/kg): 76%; body weight loss ([1]; 50 mg/kg group, observed in 2 animals): 5–10%; % tumor growth inhibition (TGI) ([1]; 50 mg/kg): 91%; CD86 modulation (mRNA) (CD86): strong and sustained up-regulation; GFI1b modulation (mRNA) (GFI1b): strong and sustained up-regulation; CD11b modulation (mRNA) (CD11b): strong and sustained up-regulation; TGI (MM1.S xenograft; JBI-097 12.5 mg/kg PO in combination with BTZ (0.5 mg/kg IP BIW)): 82%; tolerability (MM1.S xenograft; JBI-097 12.5 mg/kg PO in combination with Pomalidomide): well tolerated; TGI (MM1.S xenograft; JBI-097 12.5 mg/kg PO in combination with pomalidomide (2.5 mg/kg PO 5x/week)): 60%; TGI (MM1.S xenograft; single agent, 12.5 mg/Kg PO QD): 23%; pEC50 [2]: 5.09 to 5.97; pIC50 (HDAC1): 5.47

Source: PMC9810167, “Novel dual LSD1/HDAC6 inhibitor for the treatment of cancer” (PLOS ONE, 2023)
